The text below walks through data of article PMC13327496, “The X‐Ray Crystal Structure of BorF, the Flavin Reductase Subunit of a Two‐Component Flavin‐Dependent Tryptophan Halogenase” (Proteins, 2026).

For one assay, the target named is T1, BorF (uncultured bacterium, UniProt M9QXS1).
T1 construct: full-length residues 1-196 plus an N-terminal Pro after PreScission cleavage; His6-MBP tag removed; synthetic gene, E. coli Rosetta2(DE3) pLysS; homodimer
T1 sequence (M9QXS1 1-196): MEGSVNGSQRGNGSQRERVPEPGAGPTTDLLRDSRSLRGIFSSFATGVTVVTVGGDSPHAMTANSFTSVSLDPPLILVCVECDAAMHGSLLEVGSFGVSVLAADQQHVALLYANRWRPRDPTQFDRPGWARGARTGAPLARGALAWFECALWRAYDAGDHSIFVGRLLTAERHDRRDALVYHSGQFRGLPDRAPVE
Description: NADH depletion at […] nm. The class given is biochemical. As to conditions: 25 mM HEPES pH 7.5, room temperature.

Assay [1] deals with BorF (soil bacterial metagenome from the Anza-Borrego desert). Description: SEC; BorF alone after tag cleavage, Superdex 200, 20 mM Tris pH 7.5, 150 mM NaCl; single peak at 78.2 mL. A general note: In gel filtration, larger molecules generally elute earlier.

Consider `NC(=O)C1=CN([C@@H]2O[C@H](COP(=O)(O)OP(=O)(O)OC[C@H]3O[C@@H](n4cnc5c(N)ncnc54)[C@H](O)[C@@H]3O)[C@@H](O)[C@H]2O)C=CC1` [NADH], for which the “NADH depletion at 340 nm” value on BorF (apo-BorF 0.2 μM, 25 μM FAD) is reported as “BorF oxidizes NADH to NAD^+, as determined by NADH depletion monitored by absorbance”.

In general, stoichiometry N refers to a count of units in the complex or per binding partner. For BorF (enzyme), the stoichiometry N in assay [1] turned out to be 2.

As for `Cc1cc2nc3c(=O)[nH]c(=O)nc-3n(C[C@H](O)[C@H](O)[C@H](O)COP(=O)(O)O)c2cc1C` [FMN], the “NADH depletion at 340 nm” value on BorF (apo-BorF, 25 μM FMN, 100 μM NADH) was “BorF utilizes FAD as a substrate but is also able to reduce FMN and riboflavin”.
